From patent publication US5696276A, “Process for preparing 5,8-dihydroxynaphthoquinone derivatives, novel 5,8-dihydroxynaphthoquinone derivatives and their use as anticancer agent” (Kuhnil Pharmaceutical Co., Ltd., priority 1993, dated 1997)
In brackets after ≈: the same amount, converted by molar mass. Read-outs that look alike come from different tables or passages of the source.

Tests used:
[1] = tested on: L1210 cells; experiment: Cytotoxic activity against L1210 cells; type: cell-based; settings: Mus musculus, read-out: ED50, cytotoxic activity against L1210
Outline: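 Log-phase L1210 cells (5×10^4 cells/ml) in Fisher medium exposed 48 h at 37 °C in CO2 to three dilutions of sample dissolved in ethanol or DMSO. Cells counted by haemacytometer; growth relative to control; ED50 (μg/ml) from linear regression of growth % on log concentration.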

[2] = tested on: HL-60 cells; experiment: Cytotoxic activity against HL-60 cells; type: cell-based; settings: Homo sapiens, read-out: ED50, cytotoxic activity against HL-60
Method: As in the test for the cytotoxic activity against L1210 cells, the test samples were dissoved in ethanol or dimethylsulfoxide in a certain concentration. 0.1 ml of the sample solution was mixed with 0.9 ml of a fresh medium to prepare the dilutions. To each two test tubes having a screw cap were added 100, 50, 25 μl, respectively, of the sample dilutions by means of a micropipet. To each test tube for the test group and the control group (2√n: n=number of the samples) was added 5 ml of the dilutions of HL-60 cells and K-562 cells which were cultured and activated before 24 hours from the beginning of experiment and then diluted in a concentration of 1×10^5 cells/mi. All test tubes were cultured for 48 hours in a CO2 incubator at 37° C. and then the number of cells was counted using a haemacytometer.
The ED50 value is defined as a concentration (μg/ml) of the sample which inhibits the growth of cancer cells by 50% of the control group and determined according to a method described in NIC's mannual (NIC=National Cancer Institue, U.S.A.). The growth rate Y(%) of cells in the presence of the test sample in each concentration was calculated according to the followign equation: […]
In the above equation, T means the average cell number per ml in the test group after incubation for 48 hours in the presence of the test samples in each concentration, C means the average cell number per ml in the control group after incubation for 48 hours, and Co means the average cell number per ml in the control group at the beginning of incubation. The Y(%) value at each concentration and log10 value of each concentration were obtained and the regression curve was constructed according to the following equation from those obtained values. In this case, when all the Y(%) value obtained at each concentration is greater than 55% or lower than 45%, the experiment was repeatedly conducted.
To construct the regression curve Y=A+BX the values A and B were obtained using the following equation. [formula]
In the above, the value N is the number of selected points which is greater than 2 and lower than, or identical with, the number of cencentration of the test sample, Xi is log(concentration) i, and Yi is the growth ratio at (concentration)i. The value of ED50 was obtained for those obtained slope and intercept.

[3] = tested on: A549 cancer cells; experiment: Cytotoxic activity against A549 cancer cells (sulforhodamin B method); type: cell-based; settings: Homo sapiens, read-out: ED50, cytotoxic activity against A549
Outline: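 Cells seeded at 8×10^4 per well, attached 24 h, then exposed 48 h to six log-spaced concentrations in triplicate. TCA-fixed, SRB-stained, OD read at 520 nm; growth inhibition computed relative to time-zero and untreated counts, IC50 from regression.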

[4] = tested on: S-180 sarcoma cells; experiment: Animal experiment using Sarcoma S-180 cells (survival of mouse); type: in vivo, male ICR mouse; settings: for responders at 15 µmol/kg / response vs control in vivo at 15 µmol/kg: daily dose 15 μmole (mg/kg/day given per compound)
Outline: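 Male ICR mice (20 to 25 g) received intraperitoneal transplants of 0.1 ml S-180 cell suspension (10^7 cells/ml), prepared from ascites by washing in cold physiological saline. After 24 hours, groups of 8 to 9 mice received 7 to 8 ip injections of sample in dimethylsulfoxide diluted with saline. Controls got 2% dimethylsulfoxide-saline. Survival (T/C, %) was scored against control death.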

[5] = A549 cells, SRB method, 48 hours
[6] = ip, 1200 h, S-180 ICR mouse, intraperitoneal, 7 to 8 injections, read-out: Number of mouse survived for 50 days (converted)
[7] = ip, S-180 ICR mouse, intraperitoneal, 7 to 8 injections, read-out: T/C
[8] = ip, 1200 h, S-180 ICR mouse, intraperitoneal, daily dose 10 μmole (mg/kg/day given per compound), 7 to 8 injections, read-out: Number of mouse survived for 50 days (converted)
[9] = ip, S-180 ICR mouse, intraperitoneal, daily dose 10 μmole (mg/kg/day given per compound), 7 to 8 injections, read-out: T/C
[10] = Mus musculus, S-180, ip, 1200 h, read-out: Number of mouse survived for 50 days
[11] = Mus musculus, S-180, ip, read-out: T/C

| Structure (SMILES) | IC50 ([1]; L1210 cells, 48 hours, 37° C.) | IC50 ([2]; HL-60 cells, 48 hours, 37° C.) | IC50 [3, 5] | responders at 15 µmol/kg [4, 6] | response vs control in vivo at 15 µmol/kg [4, 7] | responders at 10 µmol/kg [4, 8] | response vs control in vivo at 10 µmol/kg [4, 9] | IC50 ([1]; L1210, 48 h) | IC50 ([2]; HL-60, 48 h) | IC50 ([3]; A549, 48 h) | responders at 5 µmol/kg [4, 10] | response vs control in vivo at 5 µmol/kg [4, 11] | responders at 10 µmol/kg [4, 10] | response vs control in vivo at 10 µmol/kg [4, 11] |
| --- | --- | --- | --- | --- | --- | --- | --- | --- | --- | --- | --- | --- | --- | --- |
| CCCCCCCCCC(=O)OC(CC=C(C)C)C1=CC(=O)c2c(O)ccc(O)c2C1=O (stereo not shown) [2-(1-n-decanoyloxy-4-methyl-3-pentenyl)-5,8-dihydroxy-1,4-naphthoquinone] | 0.7 µg/mL (≈ 1.58 µM) | 1.1 µg/mL (≈ 2.49 µM) | 15 µg/mL (≈ 33.9 µM) | 0% | 110% |  |  |  |  |  |  |  |  |  |
| CCCCCC(=O)OC(CC=C(C)C)C1=CC(=O)c2c(O)ccc(O)c2C1=O (stereo not shown) [2-(1-n-hexanoyloxy-4-methyl-3-pentenyl)-5,8-dihydroxy-1,4-naphthoquinone] | 0.2 µg/mL (≈ 0.518 µM) | 0.7 µg/mL (≈ 1.81 µM) | 2.6 µg/mL (≈ 6.73 µM) |  |  | 33.3% | 214% |  |  |  |  |  |  |  |
| CCCCCCCCC(=O)OC(CC=C(C)C)C1=CC(=O)c2c(O)ccc(O)c2C1=O (stereo not shown) [2-(1-n-nonanoyloxy-4-methyl-3-pentenyl)-5,8-dihydroxy-1,4-naphthoquinone] | 0.5 µg/mL (≈ 1.17 µM) | 1 µg/mL (≈ 2.33 µM) | 6.9 µg/mL (≈ 16.1 µM) |  |  | 0% | 206% |  |  |  |  |  |  |  |
| CCCCCCCC(=O)OC(CC=C(C)C)C1=CC(=O)c2c(O)ccc(O)c2C1=O (stereo not shown) [2-(1-n-octanoyloxy-4-methyl-3-pentenyl)-5,8-dihydroxy-1,4-naphthoquinone] | 0.2 µg/mL (≈ 0.483 µM) | 0.7 µg/mL (≈ 1.69 µM) | 4.3 µg/mL (≈ 10.4 µM) | 22.2% | 235% |  |  |  |  |  |  |  |  |  |
| CCCCC(=O)OC(CC=C(C)C)C1=CC(=O)c2c(O)ccc(O)c2C1=O (stereo not shown) [2-(1-n-pentanoyloxy-4-methyl-3-pentenyl)-5,8-dihydroxy-1,4-naphthoquinone] | 0.2 µg/mL (≈ 0.537 µM) | 0.6 µg/mL (≈ 1.61 µM) | 2.5 µg/mL (≈ 6.71 µM) |  |  | 0% | 165% |  |  |  |  |  |  |  |
| CCC(=O)OC(CC=C(C)C)C1=CC(=O)c2c(O)ccc(O)c2C1=O (stereo not shown) [2-(1-n-propionyloxy-4-methyl-3-pentenyl)-5,8-dihydroxy-1,4-naphthoquinone] |  |  |  |  |  |  |  | 0.03 µg/mL (≈ 0.0871 µM) | 0.04 µg/mL (≈ 0.116 µM) | 1.9 µg/mL (≈ 5.52 µM) | 0% | 100% |  |  |
| CCCCCCCCCCCCCCCC(=O)OC(CC=C(C)C)C1=CC(=O)c2c(O)ccc(O)c2C1=O (stereo not shown) [2-(1-palmityloxy-4-methyl-3-pentenyl)-5,8-dihydroxy-1,4-naphthoquinone] | 2.1 µg/mL (≈ 3.99 µM) | 3 µg/mL (≈ 5.7 µM) | > 20 µg/mL | 0% | 109% |  |  |  |  |  |  |  |  |  |
| CC(C)=CCC(OC(=O)Cc1ccccc1)C1=CC(=O)c2c(O)ccc(O)c2C1=O (stereo not shown) [2-(1-phenylacetyloxy-4-methyl-3-pentenyl)-5,8-dihydroxy-1,4-naphthoquinone] | 0.1 µg/mL (≈ 0.246 µM) | 0.4 µg/mL (≈ 0.984 µM) | 1.1 µg/mL (≈ 2.71 µM) |  |  | 0% | 183% |  |  |  |  |  |  |  |
| CC(C)=CCC(OC(=O)C(Cl)(Cl)Cl)C1=CC(=O)c2c(O)ccc(O)c2C1=O (stereo not shown) [2-(1-trichloroacetyloxy-4-methyl-3-pentenyl)-5,8-dihydroxy-1,4-naphthoquinone] | 0.01 µg/mL (≈ 0.0231 µM) | 0.3 µg/mL (≈ 0.692 µM) | 2 µg/mL (≈ 4.61 µM) |  |  | 0% | 134% |  |  |  |  |  |  |  |
| C=CCCCCCCCCC(=O)OC(CC=C(C)C)C1=CC(=O)c2c(O)ccc(O)c2C1=O (stereo not shown) [2-(1-undecylenoyloxy-4-methyl-3-pentenyl)-5,8-dihydroxy-1,4-naphthoquinone] | 0.01 µg/mL (≈ 0.022 µM) | 0.3 µg/mL (≈ 0.66 µM) | 6.7 µg/mL (≈ 14.7 µM) | 0% | 110% |  |  |  |  |  |  |  |  |  |
| CC=CC=CC(=O)OC(CC=C(C)C)C1=CC(=O)c2c(O)ccc(O)c2C1=O (stereo not shown) [2-[1-(2,4-hexadienoyloxy)-4-methyl-3-pentenyl]-5,8-dihydroxy-1,4-naphthoquinone] | 0.5 µg/mL (≈ 1.31 µM) | 0.6 µg/mL (≈ 1.57 µM) | 0.7 µg/mL (≈ 1.83 µM) |  |  | 25% | 185% |  |  |  |  |  |  |  |
| CC(C)=CCC(OC(=O)C=C(C)C)C1=CC(=O)c2c(O)ccc(O)c2C1=O (stereo not shown) [2-[1-(3,3-dimethyl)acryloxy-4-methyl-3-pentenyl]-5,8-dihydroxy-1,4-naphthoquinone] | < 0.01 µg/mL | 0.05 µg/mL (≈ 0.135 µM) | 1.1 µg/mL (≈ 2.97 µM) |  |  |  |  |  |  |  |  |  | 25% | 179% |
| C=CCCC(=O)OC(CC=C(C)C)C1=CC(=O)c2c(O)ccc(O)c2C1=O (stereo not shown) [2-[1-(4-pentenoyl)oxy-4-methyl-3-pentenyl]-5,8-dihydroxy-1,4-naphthoquinone] | 0.02 µg/mL (≈ 0.054 µM) | 0.5 µg/mL (≈ 1.35 µM) | 1 µg/mL (≈ 2.7 µM) |  |  | 14.3% | 180% |  |  |  |  |  |  |  |
| C=CCCCCC(=O)OC(CC=C(C)C)C1=CC(=O)c2c(O)ccc(O)c2C1=O (stereo not shown) [2-[1-(6-heptenoyl)oxy-4-methyl-3-pentenyl]-5,8-dihydroxy-1,4-naphthoquinone] | 0.2 µg/mL (≈ 0.502 µM) | 0.5 µg/mL (≈ 1.25 µM) | 4.2 µg/mL (≈ 10.5 µM) |  |  | 12.5% | 192% |  |  |  |  |  |  |  |
| CCCCCC=CCC=CCCCCCCCC(=O)OC(CC=C(C)C)C1=CC(=O)c2c(O)ccc(O)c2C1=O (stereo not shown) [2-[1-(9,12-octadecadinoyloxy-4-methyl-3-pentenyl]-5,8-dihydroxy-1,4-naphthoquinone] | 5 µg/mL (≈ 9.08 µM) | 12.5 µg/mL (≈ 22.7 µM) | > 20 µg/mL | 0% | 100% |  |  |  |  |  |  |  |  |  |
| CC(C)=CCC(OC(=O)C=C(C)C=CC=C(C)C=CC1=C(C)CCCC1(C)C)C1=CC(=O)c2c(O)ccc(O)c2C1=O (stereo not drawn) [2-[1-(cis-retinoyl)oxy-4-methyl-3-pentenyl]-5,8-dihydroxy-1,4-naphthoquinone] | 7.1 µg/mL (≈ 12.4 µM) | 6.6 µg/mL (≈ 11.6 µM) | > 20 µg/mL | 0% | 125% |  |  |  |  |  |  |  |  |  |
| C=CCC/C=C/C(=O)OC(CC=C(C)C)C1=CC(=O)c2c(O)ccc(O)c2C1=O (stereo not drawn) [2-[1-(trans-2,6-heptadienoyloxy)-4-methyl-3-pentenyl]-5,8-dihydroxy-1,4-naphthoquinone] | 1.3 µg/mL (≈ 3.28 µM) | 0.9 µg/mL (≈ 2.27 µM) | 3.8 µg/mL (≈ 9.59 µM) |  |  | 12.5% | 180% |  |  |  |  |  |  |  |
| CC/C=C/C(=O)OC(CC=C(C)C)C1=CC(=O)c2c(O)ccc(O)c2C1=O (stereo not drawn) [2-[1-(trans-2-pentenoyloxy)-4-methyl-3-pentenyl]-5,8-dihydroxy-1,4-naphthoquinone] | 0.4 µg/mL (≈ 1.08 µM) | 0.9 µg/mL (≈ 2.43 µM) | 1.1 µg/mL (≈ 2.97 µM) | 14.3% | 210% |  |  |  |  |  |  |  |  |  |
| CCC/C=C/C(=O)OC(CC=C(C)C)C1=CC(=O)c2c(O)ccc(O)c2C1=O (stereo not drawn) [2-[1-trans-(2-hexenoyl)oxy-4-methyl-3-pentenyl]-5,8-dihydroxy-1,4-naphthoquinone] | 0.5 µg/mL (≈ 1.3 µM) | 1 µg/mL (≈ 2.6 µM) | 1.6 µg/mL (≈ 4.16 µM) |  |  | 12.5% | 160% |  |  |  |  |  |  |  |
| CC/C=C/CC(=O)OC(CC=C(C)C)C1=CC(=O)c2c(O)ccc(O)c2C1=O (stereo not drawn) [2-[1-trans-(3-hexenoyl)oxy-4-methyl-3-pentenyl]-5,8-dihydroxy-1,4-naphthoquinone] | 0.3 µg/mL (≈ 0.78 µM) | 0.9 µg/mL (≈ 2.34 µM) | 3.3 µg/mL (≈ 8.58 µM) |  |  | 25% | 200% |  |  |  |  |  |  |  |
